Results taken from the supplement of paper PMC13207355.

Legend:
Settings in all cases: exposure time: 72 h
E28 [1] = patient-derived glioblastoma stem cells of classical subtype; assay: surviving fraction (nuclei count normalised to DMSO); higher = more cells surviving (less toxic)
E57 [2] = patient-derived glioblastoma stem cells of mesenchymal subtype; assay: as above
FT3469 [3] = normal neural stem cell line; assay: as above
E34 [4] = patient-derived glioblastoma stem cells of proneural subtype; assay: as above
E13 [5] = patient-derived glioblastoma stem cells of classical subtype; assay: as above
E21 [6] = patient-derived glioblastoma stem cells of mesenchymal subtype; assay: as above
E31 [7] = patient-derived glioblastoma stem cells of proneural subtype; assay: as above
E28 [8] = assay: phenotypic distance (Euclidean, principal components) from DMSO controls (arbitrary units); higher = stronger morphological change
E57 [9] = assay: as above
FT3469 [10] = assay: as above
E34 [11] = assay: as above
E13 [12] = assay: as above
E21 [13] = assay: as above
E31 [14] = assay: as above
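For phenotypic distance (Euclidean, principal components) from DMSO controls in this document: cell Painting imaging in 384-well plates, CellProfiler features reduced to at least 20 principal components, Euclidean distance versus same-plate DMSO vehicle wells (0.1% v/v), median over six images per well.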
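For surviving fraction (nuclei count normalised to DMSO) in this document: nuclei counted by high-content imaging of Hoechst-stained cells in laminin-coated 384-well plates, relative to 0.1% DMSO vehicle wells, with staurosporine as cell-death control.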

O=C1CC[C@@H](C(=O)N2CSC[C@H]2C(=O)O)N1 [Pidotimod]
Settings	phenotypic distance	surviving fraction
E13 [5], 4.1 nM	–	0.925
E13 [5], 12.3 nM	–	1.01
E13 [5], 37 nM	–	0.97
E13 [5], 111.1 nM	–	1
E13 [5], 333.3 nM	–	1.06
E13 [5], 1000 nM	–	1.01
E13 [5], 3000 nM	–	0.913
E13 [12], 4.1 nM	0.802	–
E13 [12], 12.3 nM	0.46	–
E13 [12], 37 nM	0.672	–
E13 [12], 111.1 nM	0.456	–
E13 [12], 333.3 nM	3.33	–
E13 [12], 1000 nM	0.449	–
E13 [12], 3000 nM	0.493	–
E21 [6], 4.1 nM	–	0.96
E21 [6], 12.3 nM	–	1
E21 [6], 37 nM	–	0.984
E21 [6], 111.1 nM	–	1.08
E21 [6], 333.3 nM	–	0.991
E21 [6], 1000 nM	–	0.96
E21 [6], 3000 nM	–	0.947
E21 [13], 4.1 nM	0.591	–
E21 [13], 12.3 nM	0.496	–
E21 [13], 37 nM	0.601	–
E21 [13], 111.1 nM	0.694	–
E21 [13], 333.3 nM	0.815	–
E21 [13], 1000 nM	0.785	–
E21 [13], 3000 nM	0.805	–
E28 [1], 4.1 nM	–	1.2
E28 [1], 12.3 nM	–	1.02
E28 [1], 37 nM	–	0.964
E28 [1], 111.1 nM	–	1.11
E28 [1], 333.3 nM	–	1.04
E28 [1], 1000 nM	–	1.16
E28 [1], 3000 nM	–	0.954
E28 [8], 4.1 nM	0.887	–
E28 [8], 12.3 nM	1.4	–
E28 [8], 37 nM	0.401	–
E28 [8], 111.1 nM	0.59	–
E28 [8], 333.3 nM	0.551	–
E28 [8], 1000 nM	0.647	–
E28 [8], 3000 nM	0.608	–
E31 [7], 4.1 nM	–	1.08
E31 [7], 12.3 nM	–	1.02
E31 [7], 37 nM	–	1.01
E31 [7], 111.1 nM	–	1.11
E31 [7], 333.3 nM	–	0.994
E31 [7], 1000 nM	–	1.17
E31 [7], 3000 nM	–	0.845
E31 [14], 4.1 nM	0.386	–
E31 [14], 12.3 nM	0.576	–
E31 [14], 37 nM	0.777	–
E31 [14], 111.1 nM	0.985	–
E31 [14], 333.3 nM	0.492	–
E31 [14], 1000 nM	0.921	–
E31 [14], 3000 nM	0.594	–
E34 [4], 4.1 nM	–	0.98
E34 [4], 12.3 nM	–	0.951
E34 [4], 37 nM	–	0.786
E34 [4], 111.1 nM	–	1.09
E34 [4], 333.3 nM	–	0.996
E34 [4], 1000 nM	–	1.04
E34 [4], 3000 nM	–	1.04
E34 [11], 4.1 nM	0.643	–
E34 [11], 12.3 nM	0.613	–
E34 [11], 37 nM	0.723	–
E34 [11], 111.1 nM	0.721	–
E34 [11], 333.3 nM	0.963	–
E34 [11], 1000 nM	0.89	–
E34 [11], 3000 nM	0.949	–
E57 [2], 4.1 nM	–	1.07
E57 [2], 12.3 nM	–	0.938
E57 [2], 37 nM	–	1.02
E57 [2], 111.1 nM	–	1.11
E57 [2], 333.3 nM	–	0.978
E57 [2], 1000 nM	–	1
E57 [2], 3000 nM	–	1.03
E57 [9], 4.1 nM	0.799	–
E57 [9], 12.3 nM	1.03	–
E57 [9], 37 nM	0.543	–
E57 [9], 111.1 nM	0.877	–
E57 [9], 333.3 nM	0.527	–
E57 [9], 1000 nM	0.924	–
E57 [9], 3000 nM	0.651	–
FT3469 [3], 4.1 nM	–	0.972
FT3469 [3], 12.3 nM	–	1.13
FT3469 [3], 37 nM	–	0.987
FT3469 [3], 111.1 nM	–	1.06
FT3469 [3], 333.3 nM	–	1.01
FT3469 [3], 1000 nM	–	1.01
FT3469 [3], 3000 nM	–	0.933
FT3469 [10], 4.1 nM	0.84	–
FT3469 [10], 12.3 nM	0.912	–
FT3469 [10], 37 nM	0.359	–
FT3469 [10], 111.1 nM	0.641	–
FT3469 [10], 333.3 nM	0.526	–
FT3469 [10], 1000 nM	0.625	–
FT3469 [10], 3000 nM	0.629	–

COc1cc(/C=C/C(=O)N2CCC=CC2=O)cc(OC)c1OC [Piperlongumine]
Settings	phenotypic distance	surviving fraction
E13 [5], 4.1 nM	–	0.958
E13 [5], 12.3 nM	–	0.883
E13 [5], 37 nM	–	1.05
E13 [5], 111.1 nM	–	0.818
E13 [5], 333.3 nM	–	0.823
E13 [5], 1000 nM	–	0.88
E13 [5], 3000 nM	–	0.767
E13 [12], 4.1 nM	0.433	–
E13 [12], 12.3 nM	0.675	–
E13 [12], 37 nM	0.516	–
E13 [12], 111.1 nM	2.59	–
E13 [12], 333.3 nM	0.883	–
E13 [12], 1000 nM	0.903	–
E13 [12], 3000 nM	1.87	–
E21 [6], 4.1 nM	–	1.01
E21 [6], 12.3 nM	–	0.979
E21 [6], 37 nM	–	0.997
E21 [6], 111.1 nM	–	0.997
E21 [6], 333.3 nM	–	0.908
E21 [6], 1000 nM	–	0.609
E21 [6], 3000 nM	–	0.104
E21 [13], 4.1 nM	1.09	–
E21 [13], 12.3 nM	0.626	–
E21 [13], 37 nM	0.701	–
E21 [13], 111.1 nM	0.313	–
E21 [13], 333.3 nM	0.682	–
E21 [13], 1000 nM	3.07	–
E21 [13], 3000 nM	9.28	–
E28 [1], 4.1 nM	–	1.02
E28 [1], 12.3 nM	–	1.1
E28 [1], 37 nM	–	1.13
E28 [1], 111.1 nM	–	0.988
E28 [1], 333.3 nM	–	1.03
E28 [1], 1000 nM	–	0.538
E28 [1], 3000 nM	–	0.256
E28 [8], 4.1 nM	0.727	–
E28 [8], 12.3 nM	1.04	–
E28 [8], 37 nM	0.697	–
E28 [8], 111.1 nM	0.848	–
E28 [8], 333.3 nM	0.74	–
E28 [8], 1000 nM	2.27	–
E28 [8], 3000 nM	5.12	–
E31 [7], 4.1 nM	–	0.957
E31 [7], 12.3 nM	–	1.09
E31 [7], 37 nM	–	1.19
E31 [7], 111.1 nM	–	1.12
E31 [7], 333.3 nM	–	0.938
E31 [7], 1000 nM	–	0.684
E31 [7], 3000 nM	–	0.00892
E31 [14], 4.1 nM	1.19	–
E31 [14], 12.3 nM	0.591	–
E31 [14], 37 nM	0.723	–
E31 [14], 111.1 nM	0.471	–
E31 [14], 333.3 nM	1.14	–
E31 [14], 1000 nM	1.51	–
E31 [14], 3000 nM	10.8	–
E34 [4], 4.1 nM	–	0.873
E34 [4], 12.3 nM	–	0.984
E34 [4], 37 nM	–	1.11
E34 [4], 111.1 nM	–	1.04
E34 [4], 333.3 nM	–	1.06
E34 [4], 1000 nM	–	0.863
E34 [4], 3000 nM	–	0.559
E34 [11], 4.1 nM	1.26	–
E34 [11], 12.3 nM	0.821	–
E34 [11], 37 nM	1.16	–
E34 [11], 111.1 nM	0.677	–
E34 [11], 333.3 nM	0.524	–
E34 [11], 1000 nM	0.889	–
E34 [11], 3000 nM	1.82	–
E57 [2], 4.1 nM	–	1.02
E57 [2], 12.3 nM	–	0.96
E57 [2], 37 nM	–	1.03
E57 [2], 111.1 nM	–	1.03
E57 [2], 333.3 nM	–	1.06
E57 [2], 1000 nM	–	1
E57 [2], 3000 nM	–	0.285
E57 [9], 4.1 nM	1.56	–
E57 [9], 12.3 nM	0.849	–
E57 [9], 37 nM	0.56	–
E57 [9], 111.1 nM	0.314	–
E57 [9], 333.3 nM	0.518	–
E57 [9], 1000 nM	1.93	–
E57 [9], 3000 nM	6.93	–
FT3469 [3], 4.1 nM	–	1.05
FT3469 [3], 12.3 nM	–	0.946
FT3469 [3], 37 nM	–	0.901
FT3469 [3], 111.1 nM	–	0.983
FT3469 [3], 333.3 nM	–	0.881
FT3469 [3], 1000 nM	–	0.866
FT3469 [3], 3000 nM	–	0.7
FT3469 [10], 4.1 nM	0.686	–
FT3469 [10], 12.3 nM	0.732	–
FT3469 [10], 37 nM	0.828	–
FT3469 [10], 111.1 nM	0.586	–
FT3469 [10], 333.3 nM	1.07	–
FT3469 [10], 1000 nM	1.12	–
FT3469 [10], 3000 nM	3.88	–
